Reference: patent publication EP0470275B1, “Skin whitening cosmetics” (priority 1990, dated 1992)

Key:
pigmentation = assay: Animal experiments on inhibition of pigmentation (general statement, no method given); type: in vivo; details: compared with free fatty acids or alkyl esters thereof
[1] = Solubility of linoleic acid in a silicone oil or a mixed silicone oil

CCCCCCCCCCCCCCCC(=O)O [palmitic acid]
effects on inhibition of pigmentation (pigmentation): no such significant effects

CC/C=C\C/C=C\C/C=C\CCCCCCCC(=O)O [α-linolenic acid]
Solubility in dimethylpolysiloxane [1]: not soluble

CCCCCCCCCCCCCCCCCC(=O)O [stearic acid]
effects on inhibition of pigmentation (pigmentation): no such significant effects

CCCCC/C=C\C/C=C\CCCCCCCC(=O)O [linoleic acid]
Solubility in dimethylpolysiloxane [1]: not soluble
